Results: US20060127317A1, “Nasallly applicable pharmaceutical preparation and the production thereof” (priority 2002, published 2006)

Tested on: ciliated epithelium of the trachea of chicken embryos
Test: standard test for examining ciliary function (ciliary frequency of tracheal ciliated epithelium tissue pieces)
Type: cell-based
Conditions: orienting tests; compared with results of table 2
Source text: In a standard test for examining ciliary function, a conventional preparation for nasal administration having a phosphate/citrate buffer and benzalkonium chloride as preservative was compared in each case with a preparation of the invention having malic acid as buffer and benzalkonium chloride as preservative.
Pieces of tissue from ciliated epithelium of the trachea of chicken embryos are employed in the tests on which the comparison is based, reference being made for details of the tests to S. G. Romejn et al., Int. J. of Pharmac. 135 (1996) 137-145 and van De Donk et al., Rhinology, 20 (1982) 81-87.
The self-cleaning of the nasal mucosa is then simulated by washing out the respective solutions and adding Ringer's solution for 45 min.
After exposure for 15 min, the ciliary frequency is reduced distinctly less by the exemplary solutions with malic acid buffer than by the reference solutions. The self-cleaning of the nasal mucosa is then simulated by washing out the test solutions and adding Ringer's solution for 45 min. A distinctly better recovery of the ciliary beating force, which extends to more than ¾ of the initial beating force (of 100%), is achieved thereby with the exemplary solutions with malic acid buffer. […]

Compound | reduction in ciliary activity and regeneration of the cilia (result in words)
calcitonin [calcitonin (from salmon)] | similar
O=C(O)c1cc(=O)c2c(OCC(O)COc3cccc4oc(C(=O)O)cc(=O)c34)cccc2o1 [cromoglicic acid] | similar
